Values quoted from earlier work as cited in US10073089B2 (priority 2011, dated 2018).

Tested on: torpedo electrocyte membranes
Settings: read-out: Sensitivity (concentration in nM)

Substance	IC50 [nM]
gymnodimine A [GYM A]	391
13-desmethyl spirolide C [13-SPX C]	108
